Experimental findings from PMC8129498, “Synthesis, Antitumor and Antiviral In Vitro Activities of New Benzotriazole-Dicarboxamide Derivatives” (Frontiers in Chemistry, 2021) are described below.

In general, melting point refers to the temperature of the solid-liquid transition. As usually defined, the CC50 is the concentration giving 50% cytotoxicity. Broadly, the EC50 is the concentration needed to bring the measured effect to its halfway point.

Series [1] in a line: Cytotoxicity in Vero-76 cell-line (MTT). Type of series: cell-based. The following applies: monkey (Cercopithecus aethiops), Vero-76 cells (mock-infected), mock-infected Vero-76 cells. The method, then:
Vero-76 cells were seeded in 96-well plates at an initial density of 5 × 10^5 cells/ml, in Dulbecco’s Modified Eagle Medium (D-MEM) with L-glutamine and 25 mg/L kanamycin, supplemented with 10% FBS. Cell cultures were then incubated at 37°C in a humidified and 5% CO2 atmosphere, in the absence or presence of serial dilutions of test compounds. The test medium used for the cytotoxic assay as well as for antiviral assay contained 1% of the appropriate serum. Cell viability was determined after 48–96 h at 37°C by MTT method for Vero-76 ([Pauwels et al., 1988]).
The extent of cell growth/viability and viral multiplication, at each drug concentration tested, were expressed as percentage of untreated controls. Concentrations resulting in 50% inhibition (CC50 or EC50) were determined by linear regression analysis.

Series [2] deals with Coxsackievirus B5 (CV-B5). As to the kind of experiment: Plaque reduction assay, CV-B5 in Vero-76 monolayers. Type of series: cell-based. The following applies: Enterovirus B. For orientation: In a plaque reduction assay, fewer plaques than in the control indicate reduced infectivity or spread.
A further series deals with Poliovirus type-1 (Sb-1). The series is described as follows: microbe, parasite or virus in culture. Type of series: cell-based. The note with it: Enterovirus C, Vero 76, read-out: EC50, plaque reduction Sb-1.

Molecules are shown by their SMILES.

Turning to `Cc1cc2nnn(Cc3ccc(NC(=O)CCC(=O)O)cc3)c2cc1C`, the melting point fell in the range of 218 to 220 °C. `O=C(Nc1ccc(-n2nc3cc(Cl)c(Cl)cc3n2)cc1)c1ccc(C(=O)Nc2ccc(-n3nc4cc(Cl)c(Cl)cc4n3)cc2)s1` gave a melting point above 300 °C. For `O=C(O)CCC(=O)Nc1ccc(Cn2nnc3cc(Cl)c(Cl)cc32)cc1`, the melting point was 214 to 216 °C. Still for that read-out and setting: for `O=C(CCC(=O)Nc1ccc(-n2nnc3cc(Cl)c(Cl)cc32)cc1)Nc1ccc(-n2nnc3cc(Cl)c(Cl)cc32)cc1` the value was 264 to 265 °C; for `O=C(Nc1ccc(Cn2nnc3ccccc32)cc1)c1ccc(C(=O)Nc2ccc(Cn3nnc4ccccc43)cc2)s1`, above 300 °C. Still for that read-out and setting: for `Cc1cc2nnn(Cc3ccc(NC(=O)c4cccc(C(=O)O)n4)cc3)c2cc1C` the value was 214 to 216 °C; for `O=C(Nc1ccc(Cn2nnc3ccccc32)cc1)c1ccc(C(=O)Nc2ccc(Cn3nnc4ccccc43)cc2)cc1`, above 300 °C. As to `O=C(O)c1ccc(C(=O)Nc2ccc(Cn3nnc4ccccc43)cc2)s1`, the melting point is above 300 °C. On the same count and under the same terms, for `O=C(CCC(=O)Nc1ccc(Cn2nnc3ccccc32)cc1)Nc1ccc(Cn2nnc3ccccc32)cc1` the value was 255 to 257 °C; for `O=C(O)c1cccc(C(=O)Nc2ccc(-n3nnc4cc(Cl)c(Cl)cc43)cc2)n1`, 240 °C; for `O=C(O)c1cccc(C(=O)Nc2ccc(-n3nc4cc(Cl)c(Cl)cc4n3)cc2)n1`, 240 °C. The same measure, in the same setting: for `O=C(O)c1cccc(C(=O)Nc2ccc(Cn3nnc4ccccc43)cc2)n1` the value was 230 to 232 °C.

For `O=C(Nc1ccc(-n2nc3cc(Cl)c(Cl)cc3n2)cc1)c1cccc(C(=O)Nc2ccc(-n3nc4cc(Cl)c(Cl)cc4n3)cc2)n1`, the melting point is above 300 °C. The same measure, in the same setting: for `Cc1cc2nnn(Cc3ccc(NC(=O)CCCC(=O)O)cc3)c2cc1C` the value was 270 to 272 °C. `Cc1cc2nnn(Cc3ccc(NC(=O)/C=C/C(=O)Nc4ccc(Cn5nnc6cc(C)c(C)cc65)cc4)cc3)c2cc1C` showed a melting point of 117 to 119 °C. `O=C(Nc1ccc(-n2nnc3cc(Cl)c(Cl)cc32)cc1)c1ccc(C(=O)Nc2ccc(-n3nnc4cc(Cl)c(Cl)cc43)cc2)cc1` showed a melting point of 197 to 199 °C. In turn, `O=C(CCCC(=O)Nc1ccc(Cn2nnc3ccccc32)cc1)Nc1ccc(Cn2nnc3ccccc32)cc1` registered a melting point of 237 to 238 °C.

As for `Cc1cc2nnn(Cc3ccc(NC(=O)CCCC(=O)Nc4ccc(Cn5nnc6cc(C)c(C)cc65)cc4)cc3)c2cc1C`, the melting point was 253 to 255 °C. With `O=C(Nc1ccc(Cn2nnc3cc(Cl)c(Cl)cc32)cc1)c1cccc(C(=O)Nc2ccc(Cn3nnc4cc(Cl)c(Cl)cc43)cc2)n1`, the melting point is above 300 °C. Still for that read-out and setting: for `Cc1cc2nnn(Cc3ccc(NC(=O)CCCCC(=O)Nc4ccc(Cn5nnc6cc(C)c(C)cc65)cc4)cc3)c2cc1C` the value was 283 to 285 °C; for `O=C(/C=C/C(=O)Nc1ccc(Cn2nnc3cc(Cl)c(Cl)cc32)cc1)Nc1ccc(Cn2nnc3cc(Cl)c(Cl)cc32)cc1`, above 300 °C. On the same count and under the same terms, for `O=C(Nc1ccc(Cn2nnc3cc(Cl)c(Cl)cc32)cc1)c1ccc(C(=O)Nc2ccc(Cn3nnc4cc(Cl)c(Cl)cc43)cc2)s1` the value was above 300 °C; for `O=C(O)CCCC(=O)Nc1ccc(Cn2nnc3cc(Cl)c(Cl)cc32)cc1`, 173 to 175 °C; for `Cc1cc2nnn(Cc3ccc(NC(=O)c4cccc(C(=O)Nc5ccc(Cn6nnc7cc(C)c(C)cc76)cc5)n4)cc3)c2cc1C`, 186 to 188 °C. `O=C(O)CCCCC(=O)Nc1ccc(-n2nnc3cc(Cl)c(Cl)cc32)cc1` [Compound 4c, 6-((4-(5,6-Dichloro-1H-Benzo[d][1,2,3]Triazol-1-yl)phenyl)amino)-6-oxohexanoic Acid]: the melting point is 148 to 150 °C. Moreover, the CC50 in series [1] was determined as 37 µM. A half-maximal response in series [2] (EC50) required 9 µM. Also, the EC50 in the series on Poliovirus type-1 (Sb-1) is above 37 µM. For the compound `O=C(CCCCC(=O)Nc1ccc(Cn2nnc3cc(Cl)c(Cl)cc32)cc1)Nc1ccc(Cn2nnc3cc(Cl)c(Cl)cc32)cc1`, the melting point was above 300 °C. Still for that read-out and setting: for `O=C(O)c1cccc(C(=O)Nc2ccc(Cn3nnc4cc(Cl)c(Cl)cc43)cc2)n1` the value was 175 to 177 °C; for `Cc1cc2nnn(Cc3ccc(NC(=O)CCC(=O)Nc4ccc(Cn5nnc6cc(C)c(C)cc65)cc4)cc3)c2cc1C`, 270 to 272 °C. Take `O=C(O)CCCC(=O)Nc1ccc(Cn2nnc3ccccc32)cc1`: the melting point was in the range of 152 to 154 °C. In turn, `Cc1cc(CCCOc2c(C)cc(-c3noc(C(F)(F)F)n3)cc2C)on1` [P, Pleconaril, reference compound] registered a cytotoxic concentration (CC50) in series [1] above 100 µM. The compound also registered an EC50 in series [2] of 0.005 µM. Take `O=C(Nc1ccc(Cn2nnc3ccccc32)cc1)c1cccc(C(=O)Nc2ccc(Cn3nnc4ccccc43)cc2)n1`: the melting point lay in the range of 111 to 112 °C. On to `Cc1cc2nnn(Cc3ccc(NC(=O)c4ccc(C(=O)O)cc4)cc3)c2cc1C`, for which the melting point is above 300 °C. For `O=C(O)c1ccc(C(=O)Nc2ccc(Cn3nnc4ccccc43)cc2)cc1`, the melting point was above 300 °C. In the case of `O=C(CCC(=O)Nc1ccc(Cn2nnc3cc(Cl)c(Cl)cc32)cc1)Nc1ccc(Cn2nnc3cc(Cl)c(Cl)cc32)cc1` [Compound 9a, N ^1,N ^4-Bis(4-((5,6-Dichloro-1H-Benzo[d][1,2,3]Triazol-1-yl)methyl)phenyl)Succinamide], the melting point is above 300 °C. Moreover, the 50% cytotoxic concentration (CC50) in series [1] is above 100 µM. Further, the midpoint of the response in series [2], the EC50, lay at 23 µM. In the series with Poliovirus type-1 (Sb-1), the half-maximal effective concentration (EC50) is 43 µM.

Take `O=C(O)CCCCC(=O)Nc1ccc(Cn2nnc3ccccc32)cc1`: the melting point lay in the range of 134 to 136 °C. For `Cc1cc2nnn(Cc3ccc(NC(=O)/C=C/C(=O)O)cc3)c2cc1C`, the melting point fell in the range of 256 to 258 °C.

`C#C[C@@]1(O)[C@H](O)[C@@H](CO)O[C@H]1n1ccc(N)nc1=O` [Compound 2ec, 2′-C-ethynyl-cytidine, reference compound] displayed a half-maximal cytotoxic concentration (CC50) in series [1] above 100 µM. Also, the EC50 with Poliovirus type-1 (Sb-1) was determined as 23 µM. In the case of `Cc1cc2nnn(Cc3ccc(NC(=O)c4ccc(C(=O)Nc5ccc(Cn6nnc7cc(C)c(C)cc76)cc5)s4)cc3)c2cc1C`, the melting point lay in the range of 225 to 227 °C.

In turn, `O=C(O)CCC(=O)Nc1ccc(-n2nnc3cc(Cl)c(Cl)cc32)cc1` [Compound 4a, 4-((4-(5,6-Dichloro-1H-Benzo[d][1,2,3]Triazol-1-yl)phenyl)amino)-4-oxobutanoic Acid] displayed a melting point of 163 to 164 °C. In series [1], this compound yielded a CC50 of 90 µM. The compound further came in with a 50% effective concentration (EC50) in series [2] of 13 µM. Also, the EC50 with Poliovirus type-1 (Sb-1) is above 90 µM. For `O=C(CCCCC(=O)Nc1ccc(-n2nnc3cc(Cl)c(Cl)cc32)cc1)Nc1ccc(-n2nnc3cc(Cl)c(Cl)cc32)cc1`, the melting point was 293 to 294 °C. On the same count and under the same terms, for `O=C(CCCCC(=O)Nc1ccc(Cn2nnc3ccccc32)cc1)Nc1ccc(Cn2nnc3ccccc32)cc1` the value was 231 to 232 °C; for `Cc1cc2nnn(Cc3ccc(NC(=O)CCCCC(=O)O)cc3)c2cc1C`, 203 to 204 °C; for `O=C(O)CCC(=O)Nc1ccc(Cn2nnc3ccccc32)cc1`, 193 to 195 °C. As for `Cc1cc2nnn(Cc3ccc(NC(=O)c4ccc(C(=O)O)s4)cc3)c2cc1C`, the melting point was above 300 °C. In the case of `O=C(Nc1ccc(-n2nc3cc(Cl)c(Cl)cc3n2)cc1)c1ccc(C(=O)Nc2ccc(-n3nc4cc(Cl)c(Cl)cc4n3)cc2)cc1`, the melting point is above 300 °C. Still for that read-out and setting: for `O=C(Nc1ccc(-n2nnc3cc(Cl)c(Cl)cc32)cc1)c1cccc(C(=O)Nc2ccc(-n3nnc4cc(Cl)c(Cl)cc43)cc2)n1` the value was above 300 °C; for `O=C(O)CCCCC(=O)Nc1ccc(Cn2nnc3cc(Cl)c(Cl)cc32)cc1`, 228 to 230 °C.

As for `O=C(O)CCCC(=O)Nc1ccc(-n2nnc3cc(Cl)c(Cl)cc32)cc1` [Compound 4b, 5-((4-(5,6-Dichloro-1H-Benzo[d][1,2,3]Triazol-1-yl)phenyl)amino)-5-oxopentanoic Acid], the melting point was in the range of 106 to 108 °C. Also, the CC50 in series [1] is above 100 µM. Also, the 50% effective concentration (EC50) in series [2] worked out at 45 µM. For the same compound, the EC50 in the series on Poliovirus type-1 (Sb-1) came to 44 µM.
